Laboratory results from patent publication US8013006B2.

test system: HCV replicon; assay: microbe, parasite or virus in culture; assay type: cell-based; conditions: Hepatitis C virus, 48 h, read-out: Replicon IC5Os

Row | Structure (SMILES) | IC50 [µM]
1 | CCCNC(=O)Nc1cccc(-c2c(C#N)c3ccc(OC)cc3n2CC)c1 [Compound 396] | < 0.5
2 | CCn1c(-c2cccc(NC(=O)NC(C)C)c2)c(C#N)c2ccc(OC)cc21 [Compound 397] | < 0.5
3 | CCCCNC(=O)Nc1cccc(-c2c(C#N)c3ccc(OC)cc3n2CC)c1 [Compound 398] | < 0.5
4 | C=CCNC(=O)Nc1cccc(-c2c(C#N)c3ccc(OC)cc3n2CC)c1 [Compound 399] | < 0.5
5 | CCNC(=O)Nc1cccc(-c2c(C#N)c3ccc(OC)cc3n2CC)c1 [Compound 401] | < 0.5
6 | CCn1c(-c2cccc(NC(=O)Nc3ccc(C(C)C)cc3)c2)c(C#N)c2ccc(OC)cc21 [Compound 403] | 0.5 to 2
7 | CCn1c(-c2cccc(NC(=O)Nc3ccccc3C)c2)c(C#N)c2ccc(OC)cc21 [Compound 405] | 0.5 to 2
8 | CCn1c(-c2cccc(NC(=O)Nc3ccc(Oc4ccccc4)cc3)c2)c(C#N)c2ccc(OC)cc21 [Compound 406] | < 0.5
9 | CCn1c(-c2ccc(NC(=O)Nc3ccc(C(C)C)cc3)cc2)c(C#N)c2ccc(OC)cc21 [Compound 445] | 0.5 to 2
10 | CCOC(=O)Nc1cccc(-c2c(C#N)c3ccc(OCCCCl)cc3n2CC)c1 [Compound 447] | < 0.5
11 | CCOC(=O)Nc1cccc(-c2c(C#N)c3ccc(OCCN4CCOCC4)cc3n2CC)c1 [Compound 492] | 0.5 to 2
12 | CCOC(=O)Nc1cccc(-c2c(C#N)c3ccc(OCCCN4CCOCC4)cc3n2CC)c1 [Compound 493] | < 0.5

same assay, conditions: Replicon IC50 values are determined by firefly luciferase signal; bicistronic replicon, 2 days; read-out: Replicon IC5Os

Row | Structure (SMILES) | IC50 [µM]
13 | CCn1c(-c2ccc(C(=O)NC3CC3)cc2)c(C#N)c2ccc(OC)cc21 [Compound 386] | > 2
14 | CCn1c(-c2ccc(C(=O)N3CCC3)cc2)c(C#N)c2ccc(OC)cc21 [Compound 387] | > 2
15 | CCn1c(-c2ccc(C(=O)NCCO)cc2)c(C#N)c2ccc(OC)cc21 [Compound 388] | > 2
16 | CCn1c(-c2ccc(C(=O)NCCCN3CCOCC3)cc2)c(C#N)c2ccc(OC)cc21 [Compound 389] | > 2
17 | CCn1c(-c2ccc(C(=O)Nc3ccccc3)cc2)c(C#N)c2ccc(OC)cc21 [Compound 390] | > 2
18 | CCn1c(-c2ccc(C(=O)Nc3ccc(OC)c(OC)c3)cc2)c(C#N)c2ccc(OC)cc21 [Compound 392] | > 2
19 | CCn1c(-c2ccc(N)cc2)c(C#N)c2cc(Cl)ccc21 [Compound 393] | 0.5 to 2
20 | CCn1c(-c2ccc(NS(C)(=O)=O)cc2)c(C#N)c2cc(Cl)ccc21 [Compound 394] | < 0.5
21 | CCn1c(-c2cccc(NC(=O)NCCCl)c2)c(C#N)c2ccc(OC)cc21 [Compound 395] | 0.5 to 2
22 | CCn1c(-c2cccc(NC(=O)NCCCCl)c2)c(C#N)c2ccc(OC)cc21 [Compound 400] | 0.5 to 2
23 | CCn1c(-c2cccc(NC(=O)NCCc3ccccc3)c2)c(C#N)c2ccc(OC)cc21 [Compound 402] | 0.5 to 2
24 | CCn1c(-c2cccc(NC(=O)Nc3ccc(C)cc3)c2)c(C#N)c2ccc(OC)cc21 [Compound 404] | > 2
25 | CCOC(=O)c1ccc(NC(=O)Nc2cccc(-c3c(C#N)c4ccc(OC)cc4n3CC)c2)cc1 [Compound 407] | 0.5 to 2
26 | COc1ccc2c(C#N)c(-c3ccc(NS(C)(=O)=O)cc3)n(CC(C)C)c2c1 [Compound 409] | 0.5 to 2
27 | CCOc1ccc2cc(-c3ccc(NS(C)(=O)=O)cc3)n(CC)c2c1 [Compound 410] | 0.5 to 2
28 | CCOc1ccc2cc(-c3ccc(NS(=O)(=O)CC)cc3)n(CC)c2c1 [Compound 411] | 0.5 to 2
29 | CCCn1c(-c2ccc(NS(C)(=O)=O)cc2)cc2ccc(OCC)cc21 [Compound 412] | > 2
30 | CCOc1ccc2c(C#N)c(-c3ccc(NS(=O)(=O)CC)cc3)n(C)c2c1 [Compound 414] | 0.5 to 2
31 | CCCn1c(-c2ccc(NS(C)(=O)=O)cc2)c(C#N)c2ccc(OCC)cc21 [Compound 417] | < 0.5
32 | CCOc1ccc2c(C#N)c(-c3ccc(NS(C)(=O)=O)cc3)n(C(C)C)c2c1 [Compound 419] | 0.5 to 2
33 | CCn1c(-c2ccc(NC(=O)CCl)cc2)c(C#N)c2ccc(C(F)(F)F)cc21 [Compound 421] | > 2
34 | CCn1c(-c2ccc(NC(=O)c3ccccc3)cc2)c(C#N)c2ccc(C(F)(F)F)cc21 [Compound 423] | > 2
35 | CCn1c(-c2ccc(NC(=O)N3CCOCC3)cc2)c(C#N)c2ccc(C(F)(F)F)cc21 [Compound 424] | > 2
36 | CCn1c(-c2ccc(NC(=O)C3CC3)cc2)c(C#N)c2ccc(C(F)(F)F)cc21 [Compound 425] | 0.5 to 2

Row | Structure (SMILES) | IC50 [µM]
37 | CCn1c(-c2ccc3ccccc3c2)c(C#N)c2ccc(OC)cc21 [Compound 426] | 0.5 to 2
38 | CCn1c(-c2ccc3c(ccn3C)c2)c(C#N)c2ccc(OC)cc21 [Compound 427] | 0.5 to 2
39 | CCn1c(-c2cccc(N)c2)c(C#N)c2cc(Cl)ccc21 [Compound 431] | > 2
40 | CCNC(=O)c1ccc(-c2c(C#N)c3ccccc3n2CC)cc1 [Compound 432] | > 2
41 | CCn1c(-c2ccc(C(=O)NC3CC3)cc2)c(C#N)c2ccccc21 [Compound 433] | > 2
42 | CCOC(=O)Nc1cccc(-c2c(C#N)c3cc(Cl)ccc3n2CC)c1 [Compound 434] | > 2
43 | CCn1c(-c2ccc(S(N)(=O)=O)cc2)c(C#N)c2cc(F)ccc21 [Compound 437] | > 2
44 | CCn1c(-c2ccc(S(=O)(=O)NC)cc2)c(C#N)c2cc(F)ccc21 [Compound 438] | > 2
45 | CCn1c(-c2ccc(NS(C)(=O)=O)cc2)c(C#N)c2cc(F)ccc21 [Compound 439] | 0.5 to 2
46 | CCn1c(-c2ccc(NS(=O)(=O)CC)cc2)c(C#N)c2cc(F)ccc21 [Compound 440] | 0.5 to 2
47 | CCOC(=O)Nc1cccc(-c2c(C#N)c3ccc(OCCCn4cncn4)cc3n2CC)c1 [Compound 441] | 0.5 to 2
48 | CCn1c(-c2ccc(NC(=O)NCCCCl)cc2)c(C#N)c2ccc(OC)cc21 [Compound 443] | > 2
49 | CCn1c(-c2ccc(NC(=O)NCCc3ccccc3)cc2)c(C#N)c2ccc(OC)cc21 [Compound 444] | > 2
50 | CCn1c(-c2ccc(NC(=O)Nc3ccc(Oc4ccccc4)cc3)cc2)c(C#N)c2ccc(OC)cc21 [Compound 446] | > 2
51 | CCn1c(-c2ccc(NS(=O)(=O)c3cn(C)cn3)cc2)c(C#N)c2ccc(OC)cc21 [Compound 448] | > 2
52 | CCn1c(-c2ccc(NS(=O)(=O)c3ccc(N4CCOCC4)nc3)cc2)c(C#N)c2ccc(OC)cc21 [Compound 449] | > 2
53 | CCOC(=O)Nc1ccc(-c2c(C#N)c3ccc(C(F)(F)F)cc3n2CC)cc1 [Compound 450] | 0.5 to 2
54 | CCn1c(-c2ccc(NS(=O)(=O)c3cccs3)cc2)c(C#N)c2ccc(OC)cc21 [Compound 451] | > 2
55 | CCn1c(-c2ccc(NS(=O)(=O)c3cccc4cccnc34)cc2)c(C#N)c2ccc(OC)cc21 [Compound 452] | > 2
56 | CCCOC(=O)Nc1ccc(-c2c(C#N)c3ccc(C(F)(F)F)cc3n2CC)cc1 [Compound 453] | 0.5 to 2
57 | CCn1c(-c2ccc(NC(=O)OCc3ccccc3)cc2)c(C#N)c2ccc(C(F)(F)F)cc21 [Compound 457] | 0.5 to 2
58 | CCn1c(-c2ccc(N)cc2)c(C#N)c2cc(-c3cccc(OC)c3)ccc21 [Compound 459] | 0.5 to 2
59 | CCn1c(-c2cccc(N)c2)c(C#N)c2cc(-c3cccc(OC)c3)ccc21 [Compound 460] | 0.5 to 2
60 | CCOc1ccc2cc(-c3ccc(NS(=O)(=O)CC)cc3)n(CC(C)C)c2c1 [Compound 465] | > 2

Row | Structure (SMILES) | IC50 [µM]
61 | CCOc1ccc2cc(-c3ccc(NS(C)(=O)=O)cc3)n(C3CCC3)c2c1 [Compound 466] | 0.5 to 2
62 | CCOc1ccc2cc(-c3ccc(NS(=O)(=O)CC)cc3)n(C3CCC3)c2c1 [Compound 467] | 0.5 to 2
63 | CCS(=O)(=O)Nc1ccc(-c2c(C#N)c3ccc(OC)cc3n2C(C)C)cc1 [Compound 468] | < 0.5
64 | CCn1c(-c2ccc(N)cc2)c(C#N)c2ccc(OCCCl)cc21 [Compound 476] | 0.5 to 2
65 | CCn1c(-c2ccc(NS(C)(=O)=O)cc2)c(C#N)c2ccc(OCCN3CCCCC3)cc21 [Compound 479] | > 2
66 | CCn1c(-c2ccc(NS(C)(=O)=O)cc2)c(C#N)c2ccc(OCCN3CCN(C)CC3)cc21 [Compound 481] | > 2
67 | CCn1c(-c2ccc(NS(C)(=O)=O)cc2)c(C#N)c2ccc(OCCN(C)CCOC)cc21 [Compound 482] | 0.5 to 2
68 | CCn1c(-c2cccc(N)c2)c(C#N)c2cc(OC)ccc21 [Compound 483] | > 2
69 | CCn1c(-c2nc3ccccc3s2)c(C#N)c2ccc(OC)cc21 [Compound 484] | > 2
70 | CCOC(=O)Nc1cccc(-c2c(C#N)c3cc(-c4cccc(OC)c4)ccc3n2CC)c1 [Compound 485] | > 2
71 | CCCOC(=O)Nc1cccc(-c2c(C#N)c3cc(-c4cccc(OC)c4)ccc3n2CC)c1 [Compound 486] | 0.5 to 2
72 | CCn1c(-c2ccc(NS(C)(=O)=O)cc2)c(C#N)c2cc(-c3cccc(OC)c3)ccc21 [Compound 487] | 0.5 to 2
73 | CCn1c(-c2ccc(NS(=O)(=O)CC)cc2)c(C#N)c2cc(-c3cccc(OC)c3)ccc21 [Compound 488] | < 0.5
74 | CCn1c(-c2cccc(NC(=O)OCC3CCCC3)c2)c(C#N)c2ccc(OC)cc21 [Compound 489] | 0.5 to 2
75 | CCn1c(-c2cccc(NC(=O)OC3CCCC3)c2)c(C#N)c2ccc(OC)cc21 [Compound 490] | 0.5 to 2
76 | CCOC(=O)Nc1cccc(-c2c(C#N)c3ccc(OCCn4cncn4)cc3n2CC)c1 [Compound 491] | > 2
77 | CCOC(=O)Nc1cccc(-c2[nH]c3cc(OC)ccc3c2C#N)c1 [Compound 494] | > 2
78 | CCn1c(-c2ccc(NS(C)(=O)=O)cc2)c(C#N)c2ccc(OCCn3ccnc3)cc21 [Compound 496] | 0.5 to 2
79 | CCn1c(-c2ccc(NS(C)(=O)=O)cc2)c(C#N)c2ccc(OCCn3cncn3)cc21 [Compound 497] | > 2
80 | CCn1c(-c2cccc(NC(=O)OCc3ccc(C(C)C)cc3)c2)c(C#N)c2ccc(OC)cc21 [Compound 500] | > 2
81 | CCn1c(-c2cccc(NC(=O)OC3CCOC3)c2)c(C#N)c2ccc(OC)cc21 (stereo not shown) [Compound 502] | > 2
82 | CCn1c(-c2cccc(NC(=O)O[C@@H]3CCOC3)c2)c(C#N)c2ccc(OC)cc21 [Compound 503] | > 2
